How the values were obtained:
[1] = biological target: T1, Human adrenergic α2A receptor (Homo sapiens, UniProt P08913); assay: Radioligand binding, adrenergic α2A (Protocol Group B); set-up: purchased Milipore (Millipore); conditions: Protocol Group B; for Percentage inhibition of ligand binding, Adrenergic α2A (0.1 μM): 0.1 μM compound; for Percentage inhibition of ligand binding, Adrenergic α2A (0.3 μM): 0.3 μM compound; for Ki: estimated Ki
T1 sequence (P08913 1-465): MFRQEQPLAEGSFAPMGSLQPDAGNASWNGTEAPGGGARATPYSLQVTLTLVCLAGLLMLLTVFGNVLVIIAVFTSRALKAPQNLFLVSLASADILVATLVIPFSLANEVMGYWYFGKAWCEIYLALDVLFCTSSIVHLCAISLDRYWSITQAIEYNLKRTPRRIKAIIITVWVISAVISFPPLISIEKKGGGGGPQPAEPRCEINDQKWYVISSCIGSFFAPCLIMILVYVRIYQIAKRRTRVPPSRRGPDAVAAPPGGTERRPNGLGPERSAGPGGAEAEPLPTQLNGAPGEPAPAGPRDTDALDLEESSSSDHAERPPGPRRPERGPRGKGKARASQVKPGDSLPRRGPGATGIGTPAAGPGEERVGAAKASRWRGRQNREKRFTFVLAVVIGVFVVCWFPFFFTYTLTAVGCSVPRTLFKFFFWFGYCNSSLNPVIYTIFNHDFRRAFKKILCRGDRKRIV
Outline: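 Compounds (1% DMSO vehicle, various concentrations) competed against 2 nM [^3H]MK-912 on recombinant receptor membranes for 60 min at 25° C, Tris-HCl pH 7.4 buffer with Mg2+, Ca2+, BSA. Bound radioligand filtered and counted; 10 μM rauwolscine set nonspecific binding. Values: percent inhibition of specific binding or estimated Ki.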

[2] = biological target: T2, Human adrenergic α2B receptor (Homo sapiens, UniProt P18089); assay: β-Arrestin GPCR functional assay, adrenergic α2B (Protocol B); format: cell-based; conditions: β-arrestin, antagonist vs nor-epinephrine EC80; read-out: IC50 Adrenergic α2B
T2 sequence (P18089 1-450): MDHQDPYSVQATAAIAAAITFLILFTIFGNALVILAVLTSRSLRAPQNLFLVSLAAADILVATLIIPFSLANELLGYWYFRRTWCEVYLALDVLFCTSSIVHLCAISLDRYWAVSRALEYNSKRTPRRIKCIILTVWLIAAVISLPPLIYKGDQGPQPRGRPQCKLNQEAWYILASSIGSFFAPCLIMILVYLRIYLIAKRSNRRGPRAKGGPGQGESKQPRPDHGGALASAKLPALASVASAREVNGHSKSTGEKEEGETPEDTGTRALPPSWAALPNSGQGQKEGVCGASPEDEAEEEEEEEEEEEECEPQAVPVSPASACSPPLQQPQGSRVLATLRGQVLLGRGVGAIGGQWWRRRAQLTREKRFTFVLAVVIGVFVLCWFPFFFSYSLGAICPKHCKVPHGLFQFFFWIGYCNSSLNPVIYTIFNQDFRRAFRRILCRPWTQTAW
Procedure: (§1) To evaluate the activity of compounds in β-Arrestin GPCR functional assays, recombinant CHO cell line (DiscoveRX), over expressed with human adrenergic α2B receptor were used. The experiment was done with kit of DiscoveRX as per recommended protocol of the supplier. Cells were harvested from culture flask using cell dissociation solution (CDS) and plated at a density of 12,000 cells/well in CP reagent (supplied with the kit) in a half area 96-well white polystyrene plate. After 24 h incubation at 37° C., compounds at various concentrations in 1% (final) DMSO were charged to the cells for 30 min at 37° C. Active nor-epinephrine (-NE) at its EC80 concentrations (50 nM) were then added to the cells and incubated for another 90 min at 37° C. Detection mix was prepared by mixing of Path Hunter cell assay buffer, Emerald II solution and Galactone star solution in a ratio of 19:5:1 and incubated with the cells for 60 min at RT in the dark. The reading was taken in Envision at luminescence mode. Biochemical assay results are presented as the percent Inhibition in Table B2a, or IC50 values in Table B2b.

[3] = biological target: T3, Human adrenergic α1B receptor (Homo sapiens, UniProt P35368); assay: Radioligand binding, adrenergic α1B (Protocol Group B); set-up: purchased Milipore (Millipore); conditions: Protocol Group B; for Percentage inhibition of ligand binding, Adrenergic α1B (0.1 μM): 0.1 μM compound; for Percentage inhibition of ligand binding, Adrenergic α1B (0.3 μM): 0.3 μM compound; for Ki: estimated Ki
T3 sequence (P35368 1-520): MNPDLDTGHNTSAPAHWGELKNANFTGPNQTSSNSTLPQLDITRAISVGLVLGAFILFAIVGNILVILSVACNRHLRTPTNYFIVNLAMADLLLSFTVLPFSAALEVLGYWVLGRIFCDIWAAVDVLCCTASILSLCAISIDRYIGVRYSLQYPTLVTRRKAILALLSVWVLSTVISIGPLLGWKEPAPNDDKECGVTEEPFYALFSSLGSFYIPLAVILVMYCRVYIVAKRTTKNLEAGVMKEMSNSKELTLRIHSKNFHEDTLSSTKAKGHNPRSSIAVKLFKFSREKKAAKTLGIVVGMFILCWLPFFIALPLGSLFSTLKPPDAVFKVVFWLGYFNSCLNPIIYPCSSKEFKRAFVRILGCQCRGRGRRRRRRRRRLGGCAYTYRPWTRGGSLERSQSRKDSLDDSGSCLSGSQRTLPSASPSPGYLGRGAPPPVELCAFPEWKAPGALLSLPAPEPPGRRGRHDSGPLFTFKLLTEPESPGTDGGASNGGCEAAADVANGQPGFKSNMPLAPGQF
Outline: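 Values are percent inhibition of specific [3H]prazosin (0.3 nM) binding or estimated Ki, from filtration counting. Human α1B recombinant membranes, Tris-HCl pH 7.4 buffer with MgCl2 and EDTA, 60 min at 25 °C, 1% DMSO vehicle; 10 μM prazosin defined nonspecific binding.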

[4] = biological target: T1, Human adrenergic α2A receptor; assay: β-Arrestin GPCR functional assay, adrenergic α2A (Protocol B); format: cell-based; conditions: β-arrestin, antagonist vs nor-epinephrine EC80
Procedure: as §1, with “α2A” for “α2B”, “(270” for “(50”

[5] = biological target: T2, Human adrenergic α2B receptor; assay: Radioligand binding, adrenergic α2B (Protocol Group B); set-up: purchased Milipore (Millipore); conditions: Protocol Group B; for Percentage inhibition of ligand binding, Adrenergic α2B (10 nM): 10 nM compound, 0.01 µM; for Percentage inhibition of ligand binding, Adrenergic α2B (30 nM): 30 nM compound, 0.03 µM; for Percentage inhibition of ligand binding, Adrenergic α2B (0.1 μM): 0.1 μM compound; for Ki: estimated Ki, read-out: Ki α2B
Outline: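 Compounds at various concentrations in 1% DMSO were tested on recombinant membranes in Tris-HCl pH 7.4 buffer containing MgCl2, CaCl2 and 0.2% BSA.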

Compound | Percentage inhibition of ligand binding, Adrenergic α2A (0.1 μM) [1] [%] | Percentage inhibition of ligand binding, Adrenergic α2A (0.3 μM) [1] [%] | IC50 [2] [nM] | Percentage inhibition of ligand binding, Adrenergic α1B (0.1 μM) [3] [%] | Percentage inhibition of ligand binding, Adrenergic α1B (0.3 μM) [3] [%] | IC50 [4] [nM] | Percentage inhibition of ligand binding, Adrenergic α2B (10 nM) [5] [%] | Percentage inhibition of ligand binding, Adrenergic α2B (30 nM) [5] [%] | Percentage inhibition of ligand binding, Adrenergic α2B (0.1 μM) [5] [%] | Ki [1] [nM] | Ki [5] [nM] | Ki [3] [nM]
Cc1ccc2c(c1)c1c(n2CC(C)(O)c2cccnc2)CC2CCCN2C1 (single isomer, unassigned) [38c] | 7 | 31 | 364 | 2 | 23 | 7820 | 43 | 71 | 92 | – | – | –
CC(O)(Cn1c2c(c3cc(F)cc(Cl)c31)C1CCCN1CC2)c1cccnc1 (single isomer, unassigned) [89d] | 74 | 99 | – | 15 | 54 | 1970 | 104 | 115 | – | 26.2 | 0.85 | –
Cc1ccc2c(c1F)c1c(n2CC(C)(O)c2cccnc2)CCN2CCCC12 (single isomer, unassigned) [87c] | 85 | 94 | 13 | 62 | 86 | 787 | 96 | 99 | – | 8.9 | 0.91 | 26.2
Cc1ccc2c(c1F)c1c(n2CC(C)(O)c2cccnc2)CCN2CCCC12 (single isomer, unassigned) [87d] | 57 | 79 | 44 | 34 | 67 | 3680 | 87 | 97 | – | 54.9 | 1.54 | –
Cc1cc(F)c2c(c1)c1c(n2CC(C)(O)c2ccncc2)CCN2CCCC12 (single isomer, unassigned) [81b] | 68 | 85 | 15 | 49 | 76 | 1650 | 98 | 100 | 100 | 27.3 | 0.93 | 35.6

Reference: patent publication US20150315188A1, “COMPOUNDS AND METHODS FOR TREATMENT OF HYPERTENSION” (MEDIVATION TECHNOLOGIES, INC., priority 2012, published 2015)
